Source: patent US20230364079A1, “COMPOUND AS BRAIN-PERMEABLE BTK OR HER2 INHIBITOR, PREPARATION METHOD THEREFOR, AND USE THEREOF” (CHENGDU HYPERWAY PHARMACEUTICALS CO., LTD., priority 2020, published 2023)

Key:
[1] = Liver microsome metabolic stability test, human; format: in vitro ADME; conditions: for half-life: liver microsomes, 0.5 mg/mL protein, read-out: T½
Experimental: (§1) 1: To the sample wells of T0, T5, T10, T20, T30, T60 and NCF60, 10 µL of the test or reference working solution and 80 µL of microsome working solution (hepatic microsome with a protein concentration of 0.5 mg/mL) were added, and to Blank60 well, only the microsome working solution was added. Then samples of the Blank60, T5, T10, T20, T30 and T60 other than T0 and NCF60 were placed in a 37° C. water bath and pre-incubated for about 10 min.
(§2) 2: To the T0 sample well, 300 µL of stop solution (containing 200 ng/mL tolbutamide and 200 ng/mL labetalol in acetonitrile solution) was added first, followed by 10 µL of NADPH regeneration system working solution.
(§3) 3: After the pre-incubation of Blank60, T5, T10, T20, T30 and T60 incubation plates, 10 µL of NADPH regeneration system working solution was added to each sample well to start the reaction, and 10 µL of 100 mM potassium phosphate buffer was added to the NCF60 sample well.
(§4) 4: After incubation for an appropriate time (such as 5, 10, 20, 30 and 60 min), to each test sample well and control well of the Blank60, T5, T10, T20, T30, T60 and NCF60 plates, 300 µL of stop solution was added to terminate the reaction.
(§5) 5: All sample plates were shaken to mix well and centrifuged at 4000 rpm for 20 min, and 100 µL of the supernatant of the test sample or control sample was taken and diluted with 300 µL of pure water for LC-MS/MS analysis.
(§6) 6: Data analysis: T½ and CLint(mic) (µL/min/mg) values were calculated according to the first-order elimination kinetics. The first-order elimination kinetics equation was: […]

[2] = Liver microsome metabolic stability test, rat; format: in vitro ADME; conditions: for half-life: liver microsomes, 0.5 mg/mL protein, read-out: T½
Experimental: as §1, §2, §3, §4, §5, §6

BTK wild-type kinase = BTK wild-type kinase (Homo sapiens (Human), UniProt Q06187); test: BTK kinase activity inhibition test in vitro (Caliper EZ Reader); format: biochemical
Sequence of BTK wild-type kinase (Q06187 whole entry): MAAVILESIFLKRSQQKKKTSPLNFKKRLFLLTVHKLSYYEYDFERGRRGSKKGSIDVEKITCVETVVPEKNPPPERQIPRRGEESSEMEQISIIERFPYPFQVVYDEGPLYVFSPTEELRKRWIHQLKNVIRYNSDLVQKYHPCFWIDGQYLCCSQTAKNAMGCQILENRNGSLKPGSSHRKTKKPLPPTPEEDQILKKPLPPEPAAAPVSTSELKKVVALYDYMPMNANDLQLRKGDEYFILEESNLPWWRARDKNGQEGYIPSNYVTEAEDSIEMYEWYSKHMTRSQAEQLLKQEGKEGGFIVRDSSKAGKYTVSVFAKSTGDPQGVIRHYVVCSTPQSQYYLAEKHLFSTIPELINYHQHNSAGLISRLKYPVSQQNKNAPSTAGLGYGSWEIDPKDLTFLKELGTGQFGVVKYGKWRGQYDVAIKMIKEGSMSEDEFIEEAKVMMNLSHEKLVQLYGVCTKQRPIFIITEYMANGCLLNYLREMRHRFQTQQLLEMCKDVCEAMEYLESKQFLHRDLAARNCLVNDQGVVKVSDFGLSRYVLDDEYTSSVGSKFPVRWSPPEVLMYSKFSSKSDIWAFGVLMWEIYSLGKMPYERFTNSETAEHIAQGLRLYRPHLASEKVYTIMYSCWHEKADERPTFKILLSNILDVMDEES
Experimental: (§7) In the tests on the activity of inhibiting BTK and HER2 kinase in vitro in the examples of the present disclosure, powder of the compound was dissolved in 100% DMSO to prepare a 10 mM stock solution and stored at-20° C. in the dark. […] In addition, the compounds were subjected to experiments such as liver microsome metabolic stability, rat PK, rat brain penetration rate, and drug efficacy model in the examples of the present disclosure.
(§8) Compound powders were dissolved in 100% DMSO to make 10 mM stock solutions, which were stored at -20° C. in the dark.
(§9) 2: Kinase Reaction Process
(§10) (1) Preparation of 1 × Kinase buffer.
(§11) (5) After centrifugation at 1000 rpm for 30 seconds, the reaction plate was shaken to mix well and incubated at room temperature for 10 min.
(§12) (6) A 5/3-fold final concentration of a mixed solution of ATP and Kinase substrate 2 was prepared with 1 × Kinase buffer.
(§13) (7) 15 µL of the mixed solution of ATP and substrate with 5/3-fold final concentration was added to start the reaction.
(§14) (8) The 384-well plate was centrifuged at 1000 rpm for 30 seconds, shaken to mix well, and incubated at room temperature for 10 min.
(§15) (9) 30 µL of a stop solution was added to stop the kinase reaction, and after centrifugation at 1000 rpm for 30 seconds, the plate was shaken to mix well;
(§16) (10) The conversion rate was read with Caliper EZ Reader.
(§17) where Conversion%_sample indicates the conversion rate reading of the sample; Conversion%_min is the average reading of the negative control wells, representing the conversion rate reading of the wells without enzyme activity; Conversion%_max is the average reading of the ratio of the positive control wells, representing the conversion rate reading of the wells without compound inhibition.
(§18) Dose-Response Curve Fitting
(§19) With the log value of the concentration as the X-axis, and the percentage inhibition rate as the Y-axis, the dose-effect curve was fitted using the log(inhibitor) vs. response-Variable slope of the analysis software GraphPad Prism 5, so as to determine the IC50 value of each compound on the enzyme activity.
(§20) The calculation formula was: […]

[3] = target: BTK mutation-type C481S kinase (Homo sapiens (Human), UniProt Q06187, C481S); test: BTK-C481S kinase activity inhibition test in vitro (Caliper EZ Reader); format: biochemical
Sequence of BTK mutation-type C481S kinase (Q06187 whole entry C481S): as the sequence (Q06187 whole entry) above, with C481S counted along it
Experimental: as §7, §8, §9, §10, §11, §12, §13, §14, §15, §16, §17, §18, §19, §20

[4] = Pharmacokinetic test, oral, SD rats; format: in vivo; conditions: oral 10 mg/kg, plasma; for AUC(0-inf) / Cmax / half-life: rat; for Cmax: read-out: Cmax; for half-life: read-out: T½ (converted)
Experimental: Each test compound was administered orally (10 mg/kg, 3 rats in each group) to SD rats for pharmacokinetic study. […] Animals were fasted overnight before oral administration, and fed again after 4 h of administration. […] At each collection time point, 3 whole blood samples were collected at a the collection volume of about 0.2-0.3 mL. […] The collected plasma was stored at -20° C. before analysis. 20 µL of plasma sample was added into a 1.6 mL 96-well deep-well plate, added with 200 µL of working internal standard solution (the same volume of vehicle was added to the blank instead of internal standard), vortexed for 1 min, and centrifuged at 5800 rpm for 10 min. 100 µL of the supernatant was added to a 96-well injection plate for LC-MS/MS analysis.

SMILES	%Remaining (60 min) [1] [%]	half-life [1] [min]	%Remaining (60 min) [2] [%]	half-life [2] [min]	IC50 (BTK wild-type kinase) [nM]	IC50 [3] [nM]	Cl [4] [mL/min/kg]	AUC(0-inf) [4] [ng·h/mL]	Cmax [4] [ng/mL]	half-life [4] [min]
COc1ccccc1C(=O)NCc1ccc(-c2nn(C3CCC(CO)OC3)c3ncnc(N)c23)cc1 (stereo not drawn) [Compound 60-A]	109.9		69							
Nc1nccc2c1n(-c1ccc(Oc3ccccc3)cc1)c(=O)n2C1CCC(CO)OC1 (stereo not drawn) [Compound 120]					20 to 100	5 to 20				
COc1cccc(C(F)(F)c2ccc(-c3nc(C4CCC(CO)OC4)n4ccnc(N)c34)cc2)c1 (stereo not drawn) [Compound 121]					5 to 20	5 to 20				
Nc1nccn2c(C3CCC(CO)OC3)nc(-c3ccc(C(F)(F)c4cc(C(F)(F)F)ccn4)cc3)c12 (stereo not drawn) [Compound 124]					100 to 1000	100 to 1000				
Nc1nccn2c(C34CCC(CO)(CC3)OC4)nc(-c3ccc(C(F)(F)c4cccc(Cl)c4F)cc3)c12 [Compound 152]	25.4	30.2	25.8	13.5	100 to 1000		272.78	1330	200	169
Nc1nccn2c(C34CCC(CO)(CC3)OC4)nc(-c3ccc(C(F)(F)c4ccccc4Cl)cc3)c12 [Compound 155]	25.8	33.3	14.2	22.3	100 to 1000					

Next, values leading:

%Remaining (60 min) [1] [%]	half-life [1] [min]	%Remaining (60 min) [2] [%]	half-life [2] [min]	IC50 (BTK wild-type kinase) [nM]	IC50 [3] [nM]	Cl [4] [mL/min/kg]	AUC(0-inf) [4] [ng·h/mL]	Cmax [4] [ng/mL]	half-life [4] [min]	SMILES
9.7	18.5	0.1	5.4	< 5						Cc1cccc(Oc2ccc(-c3nc(C4CCC(CO)OC4)n4ccnc(N)c34)cc2)c1F (stereo not drawn) [Compound 24]
39.1	44.5	24.5	30.1	5 to 20	5 to 20					Nc1nccn2c(C3CCC(CO)OC3)nc(-c3ccc(C(=O)c4ccccc4)cc3)c12 (stereo not drawn) [Compound 26]
112.0	> 145	90.3	> 145	5 to 20	5 to 20	8.1	20600	11100	102	Nc1nccn2c(C34CCC(CO)(CC3)OC4)nc(-c3ccc(C(=O)Nc4ccccn4)cc3)c12 [Compound 34]
31.7	37.7	8.5	17	5 to 20						Nc1nccn2c(C3CCC(CO)OC3)nc(-c3ccc(Oc4c(F)cccc4F)cc3)c12 (stereo not drawn) [Compound 64]
77.7	105	37.3	45.7	5 to 20						Cc1ccnc(NC(=O)c2ccc(-c3nc(C4CCC(CO)OC4)n4ccnc(N)c34)cc2)c1 (stereo not drawn) [Compound 70]
81.1	> 145	39.5	46.5	< 5		48.75	3670	1770	75	COc1cccc(Oc2ccc(-c3nc(C4CCC(CO)OC4)n4ccnc(N)c34)cc2)c1 (stereo not drawn) [Compound 101]
100.3	> 145	85.7	> 145	< 5	< 5	16.67	10400	4730	104	N#Cc1ccnc(NC(=O)c2ccc(-c3nc(C4CCC(CO)OC4)n4ccnc(N)c34)cc2)c1 (stereo not drawn) [Compound 103]
